Experimental data from patent US8951995B2, “Use of 24-nor-UDCA” (Medizinische Universitat Graz, priority 2005, dated 2015).
Like-named read-outs stand apart in the source and are kept apart here.

Legend:
[1] = tested on: Cyp3a11; assay: Real-time PCR, relative expression of Cyp3a11; type: in vivo; conditions: liver mRNA, Mdr2−/− mice fed 0.5% w/w for 4 weeks; KO = 100; mean ± SD, n = 5
Procedure: (§1) Two months-old Mdr2^−/− (a time point when sclerosing cholangitis is already fully established in these animals (Fickert, Zollner, et al. 2002) were either fed a diet supplemented with norUDCA (0.5%, w/w) or UDCA as a clinical comparator (0.5%, w/w) for 4 weeks and compared to standard-diet-fed Mdr2^−/− and wild type controls.
(§2) RNA isolation, cDNA synthesis and Taqman® real time PCR were performed as described previously (Wagner, Fickert, et al. 2003). The following primers and 5′ FAM, 3′ TAMRA labeled probes were used: Col1a1 fwd: […] (Seq ID No. 35), Col1a1 rev: […] (Seq ID No. 36) and Col1a1 probe: […] (Seq ID No. 37); TIMP-1 fwd: […] (Seq ID No. 38), TIMP-1 rev: […] (Seq ID No. 39) and TIMP-1 probe: […] (Seq ID No. 40); MMP-2 fwd: […] (Seq ID No. 41), MMP-2 rev: […] (Seq ID No. 42) and MMP-2 probe: […] (Seq ID No. 43).

[2] = tested on: Sult2a1; assay: Real-time PCR, relative expression of Sult2a1; type: in vivo; conditions: liver mRNA, Mdr2−/− mice fed 0.5% w/w for 4 weeks; KO not detectable, KO + UDCA = 100; mean ± SD, n = 5
Procedure: as §1, §2

[3] = tested on: Mrp3; assay: Real-time PCR, relative expression of Mrp3; type: in vivo; conditions: liver mRNA, Mdr2−/− mice fed 0.5% w/w for 4 weeks; KO = 100; mean ± SD, n = 5
Procedure: as §1, §2

[4] = tested on: Mdr2−/− mice; assay: Routine serum biochemistry in bile acid-fed Mdr2−/− mice; type: in vivo; conditions: Mdr2−/− mice fed 0.5% w/w in diet for 4 weeks, mean ± SD, n = 5
Procedure: as §1
Serum samples were stored at −70° C. until analysis of alanine transaminase (ALT) and alkaline phosphatase (AP) by routine clinical chemistry performed on a Hitachi 717 analyzer (Boehringer Mannheim, Mannheim, Germany). For determination of total serum bile acid levels, a commercial 3-alpha-hydroxysteroid dehydrogenase assay (Ecoline S+; DiaSys, Holzheim, Germany) was used.

[5] = tested on: Cyp2b10; assay: Real-time PCR, relative expression of Cyp2b10; type: in vivo; conditions: liver mRNA, Mdr2−/− mice fed 0.5% w/w for 4 weeks; KO = 100; mean ± SD, n = 5
Procedure: as §1, §2

[6] = tested on: Cyp7a1; assay: Real-time PCR, relative expression of Cyp7a1; type: in vivo; conditions: liver mRNA, Mdr2−/− mice fed 0.5% w/w for 4 weeks; KO = 100; mean ± SD, n = 5
Procedure: as §1, §2

[7] = tested on: Ugt1a1; assay: Real-time PCR, relative expression of Ugt1a1; type: in vivo; conditions: liver mRNA, Mdr2−/− mice fed 0.5% w/w for 4 weeks; KO = 100; mean ± SD, n = 5
Procedure: as §1, §2

[8] = tested on: Mdr2−/− mice; assay: Bile flow and biliary excretion measurement; type: in vivo; conditions: Mdr2−/− mice fed 0.5% w/w for 4 weeks, mean ± SD; for Bile flow: normalized to liver weight
Procedure: as §1
Bile flow was determined gravimetrically and normalized to liver weight as described previously (Fickert, Zollner, et al. 2001). Biliary phospholipids concentration was determined using a commercially available kit (Phospholipid B; Wako, Neuss, Germany) according to the manufacture's instructions. Biliary cholesterol concentration was determined using a commercial available kit (Cholesterol liquicolor; Human, Wiesbaden, Germany) according to the manufacture's instructions. Biliary gluthathione (GSH) concentration was determined after protein precipitation in 5% metaphosphoric acid using the Glutathione Assay Kit (Calbiochem, San Diego, US) according to the manufacturer's instructions. Biliary bile acid concentration was analyzed using a 3-alpha-hydroxysteroid dehydrogenase assay (Ecoline St, DiaSys) according to the manufacturer's instructions.

[9] = tested on: Mrp4; assay: Real-time PCR, relative expression of Mrp4; type: in vivo; conditions: liver mRNA, Mdr2−/− mice fed 0.5% w/w for 4 weeks; KO = 100; mean ± SD, n = 5
Procedure: as §1, §2

[10] = tested on: Mdr2−/− mice; assay: Liver histology (H&E, Sirius red) in bile acid-fed Mdr2−/− mice; type: in vivo
From the text: as §1
For conventional light microscopy, livers were fixed in 4% neutral buffered formaldehyde solution and embedded in paraffin. Sections (4 μm thick) were stained with H&E and Sirius red stain, respectively. The sections were coded and examined by a pathologist (H. D.) unaware of the animals' treatment.

[11] = tested on: VCAM; assay: Immunohistochemistry for vascular cell adhesion molecule (VCAM); type: in vivo; conditions: interlobular and lobular bile ducts, Mdr2−/− mice fed 0.5% w/w for 4 weeks; FIG. 4
Procedure: as §1
Immunohistochemistry for VCAM was performed on acetone fixed cryosections using the monoclonal rat anti CD106 (VCAM-1, dilution 1:30, PharMingen, San Diego, Calif., USA) and binding of the antibody was detected using the ABC system (Dako) using AEC (Dako) as substrate.

[12] = norUDCA metabolism and excretion in mice; type: in vivo
[13] = humans, relative to normal bile flow; cited from earlier work
[14] = cited from earlier work
[15] = tested on: collagen 1 and 3 mRNA; assay: Hepatic collagen 1 and 3 mRNA expression; type: in vivo; conditions: Mdr2−/− mice fed 0.5% w/w for 4 weeks
Procedure: as §1, §2

[16] = tested on: portal neutrophils (CD11b-positive cells); assay: Immunohistochemistry for neutrophils marker CD-11b; type: in vivo; conditions: Mdr2−/− mice fed 0.5% w/w for 4 weeks, vs standard diet-fed KO; FIG. 3
From the text: as §1
To quantify neutrophils CD 11b-positive cells were detected as described previously (Fickert, Fuchsbichler, et al. 2004) with the modification that binding of the antibody was detected using the ABC system (Dako) using AEC (Dako) as substrate. Number of neutrophils was calculated by counting positive cells in 20 portal fields in sections of 3 animals in each group.

[17] = tested on: Mdr2−/− mice; assay: Hepatic hydroxyproline content; type: in vivo; conditions: Mdr2−/− mice fed 0.5% w/w for 4 weeks, vs control diet-fed KO; FIG. 2
Procedure: as §1
To quantify liver fibrosis in our model hepatic hydroxyproline content was determined. The right liver lobe was homogenized in 6-normal HCl (200 mg liver tissue/4 ml HCl) and hydrolyzed at 110° C. for 16 h. After filtration 50 μl were added to 450 μl 2.2% NaOH dissolved in citrate-acetate buffer (50 g citric acid×H2O, 12 ml acidic acid, 120 g sodium acetate×3H2O, 34 g NaOH ad 1 liter distilled water; pH 6.0). After adding 250 μl perchloric acid and 12 min incubation at room temperature 250 μl p-dimethylaminobenzaldehyde solution was added and incubated at 60° C. for 20 min. Hydroxyproline content was measured at 565 nm using a hydroxyproline standard curve.

[18] = rats; cited from earlier work
[19] = tested on: hepatocytes and cholangiocytes; assay: Immunohistochemistry for proliferation marker Ki-67; type: in vivo; conditions: Mdr2−/− mice fed 0.5% w/w for 4 weeks; FIG. 5
Procedure: as §1
Immunohistochemistry for Ki-67 was performed on microwave-treated ([…] citrate buffer pH 6.0) paraffin sections (4 μm thick) using a polyclonal rabbit anti-Ki-67 antibody (dilution 1:750, Novocastra, Newcastle upon Tyne, UK). Binding of the antibody was detected using the ABC system (Dako) using AEC (Dako) as substrate. Number of proliferating hepatocytes was calculated by counting positive nuclei in 30 high power fields in sections of 3 animals in each group. Number of proliferating bile duct epithelial cells was calculated by counting positive nuclei in 20 portal fields in sections of 3 animals in each group.

[20] = Estimated choleretic potency in mice; type: in vivo; conditions: relative to normal bile flow
[21] = tested on: Ntcp, Oatp1, Bsep, Mrp2; assay: mRNA expression of hepatocellular uptake and canalicular efflux systems; type: in vivo; conditions: Mdr2−/− mice fed 0.5% w/w for 4 weeks; data not shown
Procedure: as §1, §2

[22] = Mdr2−/− mice fed 0.5% w/w for 4 weeks

Row | SMILES | Relative expression level of Cyp3a11 [1] | Relative expression level of Sult2a1 [2] | Relative expression level of Mrp3 [3] | ALT [4] [U/L] | AP [4] [U/L] | Bili [4] | Relative expression level of Cyp2b10 [5] | Relative expression level of Cyp7a1 [6] | Relative expression level of Ugt1a1 [7] | Biliary excretion of bicarbonate [8] [nmol/g/min] | Biliary excretion of bile acids [8] [nmol/g/min] | Biliary excretion of cholesterol [8] [nmol/g/min] | Biliary excretion of glutathione [8] [nmol/g/min] | Biliary excretion of phospholipids [8] [nmol/g/min] | Bile flow [8] [µL/g/min] | Relative expression level of Mrp4 [9] | also measured
1 | C[C@H](CCC(=O)O)[C@H]1CC[C@H]2[C@@H]3[C@@H](O)C[C@@H]4C[C@H](O)CC[C@]4(C)[C@H]3CC[C@]12C [UDCA, Ursodeoxycholic acid] | 246 ± 72 | 100 ± 46 | 194 ± 55 | 576 ± 175 | 399 ± 73 | 0.55 ± 0.19 | 751 ± 245 | 9 ± 4 | 137 ± 55 | 67.1 ± 10.0 | 37.2 ± 7.6 | 0.3 ± 0.1 | 5.6 ± 1.1 | 0.3 ± 0.03 | 2.4 ± 0.3 | 357 ± 95 | Animals showing bile infarcts [10, 22]: 2 out of 5
2 | C[C@H](CC(=O)O)[C@H]1CC[C@H]2[C@@H]3[C@@H](O)C[C@@H]4C[C@H](O)CC[C@]4(C)[C@H]3CC[C@]12C [norUDCA, 3-alpha,7-alpha-dihydroxy-24-nor-5-beta-cholan-23-oic acid] | 241 ± 45 | 24157 ± 14948 | 207 ± 73 | 165 ± 23 | 162 ± 25 | 0.23 ± 0.2 | 1294 ± 418 | 60 ± 30 | 304 ± 81 | 98.8 ± 14.6 | 29.5 ± 2.3 | 0.2 ± 0.04 | 5.8 ± 1.2 | 0.3 ± 0.1 | 3.5 ± 0.3 | 590 ± 193 | VCAM expression in bile duct epithelial cells [11]: significantly lower VCAM expression; Major metabolite of norUDCA ([12]; mice): glucuronide; Renal excretion of norUDCA ([12]; mice): considerable renal excretion; Bile acid sulfates and glucuronides in urine ([12]; norUDCA fed Mdr2−/− mice): appearance of bile acid sulfates and glucuronides in urine; Estimated choleretic potency [13]: about three times above that of normal bile flow; Renal excretion of norUDCA ([14]; humans (men)): considerable renal excretion; Major metabolite of norUDCA ([14]; humans): glucuronide; Hepatic collagen 1 and 3 mRNA expression [15]: significant reduction; Number of portal neutrophils (CD11b-positive cells per 20 portal fields) / portal inflammation [16]: significantly reduced number of portal neutrophils; Hepatic hydroxyproline content [17]: reduced to baseline levels; Induced bile flow [18]: 0.16 mL/min/kg; Proliferation of bile duct epithelial cells / cholangiocytes (Ki-67 positive) [19]: significantly reduced the degree of hepatocyte and bile duct epithelial cell proliferation to nearly wild type control levels; Proliferation of hepatocytes (Ki-67 positive) [19]: significantly reduced the degree of hepatocyte and bile duct epithelial cell proliferation to nearly wild type control levels; Estimated choleretic potency [20]: about three times above that of normal bile flow; mRNA expression of hepatocellular uptake (Ntcp, Oatp1) and canalicular efflux (Bsep, Mrp2) systems [21]: no significant effects; Ductular proliferation [10, 22]: virtually absent; Large bile duct disease (H&E staining) ([10]; Mdr2−/− mice fed 0.5% w/w for 4 weeks, vs control diet-fed KO, FIG. 1A): absent; Fibrosis with periductal collagen fibers (Sirius red staining) ([10]; Mdr2−/− mice fed 0.5% w/w for 4 weeks, vs control diet-fed KO, FIG. 1C): even more pronounced reduction; Sclerosing cholangitis ([10]; Mdr2−/− mice, model for PSC, within 4 weeks): cures sclerosing cholangitis
